Source: ChEMBL document CHEMBL3992506, “An in-tether sulfoxide chiral center influences the biophysical properties of the N-capped peptides” (Bioorg Med Chem, 2017)
Each block holds one molecule with its values, some of them ahead of it. Numbered stars: 1 amine (or outer) side, 2 acyl side, 3 side chain; on linkers, the order of the positions; unused ones are H or OH. Bridge positions count the residues as written; N and C are the ends. Square brackets hold non-standard residues; d marks the D form. Peptide text beside a SMILES is read from it. * marks the point of attachment. 5FAM = O=C1OC2(c3ccc(O)cc3Oc3cc(O)ccc32)c2ccc(C(=O)*)cc21; X1 = O=C(CN(CC[*:3])[*:1])[*:2]; Mpa = O=C(O)CCS

Experiments:
[1] = Stability assessed as trypsin (unknown origin)-mediated compound hydrolysis by measuring compound half life at 250 uM at 37 degC by LC-MS/MS method; format: ADME; settings: human
[2] = biological target: T1, Estrogen receptor (Homo sapiens, UniProt P03372); experiment: Binding affinity to recombinant human ER-alpha LBD (301 to 553 residues) expressed in Escherichia coli BL21(DE3) after 1 hr by fluorescence polarization assay
T1 sequence (P03372 whole entry): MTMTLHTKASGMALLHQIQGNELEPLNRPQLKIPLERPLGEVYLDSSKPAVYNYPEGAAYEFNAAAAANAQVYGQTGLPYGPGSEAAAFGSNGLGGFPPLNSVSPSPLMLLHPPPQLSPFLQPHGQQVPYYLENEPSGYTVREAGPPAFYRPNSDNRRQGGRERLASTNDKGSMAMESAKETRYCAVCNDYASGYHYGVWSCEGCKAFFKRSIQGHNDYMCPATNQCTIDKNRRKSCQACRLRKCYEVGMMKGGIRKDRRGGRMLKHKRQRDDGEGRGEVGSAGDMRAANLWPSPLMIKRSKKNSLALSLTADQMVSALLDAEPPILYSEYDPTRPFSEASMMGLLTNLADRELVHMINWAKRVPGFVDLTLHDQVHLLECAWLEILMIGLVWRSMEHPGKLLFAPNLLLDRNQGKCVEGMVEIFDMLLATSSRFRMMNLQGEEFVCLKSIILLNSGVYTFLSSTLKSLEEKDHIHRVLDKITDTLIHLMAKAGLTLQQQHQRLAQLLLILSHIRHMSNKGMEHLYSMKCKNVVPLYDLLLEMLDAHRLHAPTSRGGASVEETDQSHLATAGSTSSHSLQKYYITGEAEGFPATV

[3] = Drug uptake in HEK293T cells at 10 uM after 4 hrs by flow cytometry; format: ADME, cell-based; settings: human, hek-293t
[4] = Drug uptake in cytoplasm of HEK293T cells at 10 uM after 16 hrs by DAPI staining based confocal microscopic method; format: ADME, cell-based; settings: human

SMILES: CC[C@H](C)[C@H](NC(=O)CN1CC[S+]([O-])CCC(=O)N[C@@H](CCCNC(=N)N)C(=O)N[C@@H](CCCCN)C1=O)C(=O)N[C@@H](CC(C)C)C(=O)N[C@@H](CCCNC(=N)N)C(=O)N[C@@H](CCCNC(=N)N)C(=O)N[C@@H](CC(C)C)C(=O)N[C@@H](CC(C)C)C(=O)N[C@@H](CCC(N)=O)C(=O)NCC(=O)N[C@@H](Cc1c[nH]c2ccccc12)C(N)=O (single isomer, unassigned; isomer 2)
- t1/2 [1]: 2.1 min

SMILES: CC[C@H](C)[C@H](NC(=O)CNC(=O)[C@H](CCCCNC(=O)c1ccc2c(c1)C(=O)OC21c2ccc(O)cc2Oc2cc(O)ccc21)NC(=O)[C@@H](N)CCCNC(=N)N)C(=O)N[C@@H](CC(C)C)C(=O)N[C@@H](CCCNC(=N)N)C(=O)N[C@@H](CCCNC(=N)N)C(=O)N[C@@H](CC(C)C)C(=O)N[C@@H](CC(C)C)C(=O)N[C@@H](CCC(N)=O)C(=O)NCC(=O)N[C@@H](Cc1c[nH]c2ccccc12)C(=O)O (H-RK(5FAM)GILRRLLQGW-OH)
- Kd [2]: 162 nM

SMILES: CC[C@H](C)[C@H](NC(=O)CN1CC[S+]([O-])CCC(=O)N[C@@H](CCCNC(=N)N)C(=O)N[C@@H](CCCCN)C1=O)C(=O)N[C@@H](CC(C)C)C(=O)N[C@@H](CCCNC(=N)N)C(=O)N[C@@H](CCCNC(=N)N)C(=O)N[C@@H](CC(C)C)C(=O)N[C@@H](CC(C)C)C(=O)N[C@@H](CCC(N)=O)C(=O)NCC(=O)N[C@@H](Cc1c[nH]c2ccccc12)C(N)=O (stereo in doubt)
- t1/2 [1]: 5.9 min

More lines, now with the values ahead:

- Kd [2]: 386 nM
- Drug uptake [3]: Active
- Drug uptake [4]: Active
SMILES: CC[C@H](C)[C@H](NC(=O)CN1CC[S+]([O-])CCC(=O)N[C@@H](CCCNC(=N)N)C(=O)N[C@@H](CCCCNC(=O)c2ccc3c(c2)C(=O)OC32c3ccc(O)cc3Oc3cc(O)ccc32)C1=O)C(=O)N[C@@H](CC(C)C)C(=O)N[C@@H](CCCNC(=N)N)C(=O)N[C@@H](CCCNC(=N)N)C(=O)N[C@@H](CC(C)C)C(=O)N[C@@H](CC(C)C)C(=O)N[C@@H](CCC(N)=O)C(=O)NCC(=O)N[C@@H](Cc1c[nH]c2ccccc12)C(N)=O (stereo in doubt; form 2)

- Kd [2]: 212 nM
SMILES: CC[C@H](C)[C@H](NC(=O)CN1CCSCCC(=O)N[C@@H](CCCNC(=N)N)C(=O)N[C@@H](CCCCNC(=O)c2ccc3c(c2)C(=O)OC32c3ccc(O)cc3Oc3cc(O)ccc32)C1=O)C(=O)N[C@@H](CC(C)C)C(=O)N[C@@H](CCCNC(=N)N)C(=O)N[C@@H](CCCNC(=N)N)C(=O)N[C@@H](CC(C)C)C(=O)N[C@@H](CC(C)C)C(=O)N[C@@H](CCC(N)=O)C(=O)NCC(=O)N[C@@H](Cc1c[nH]c2ccccc12)C(N)=O ([Mpa]RK(5FAM)[X1]ILRRLLQGW-NH2; thioether 1-4)

- Kd [2]: 183 nM
SMILES: CC[C@H](C)[C@H](NC(=O)CN1CC[S+]([O-])CCC(=O)N[C@@H](CCCNC(=N)N)C(=O)N[C@@H](CCCCNC(=O)c2ccc3c(c2)C(=O)OC32c3ccc(O)cc3Oc3cc(O)ccc32)C1=O)C(=O)N[C@@H](CC(C)C)C(=O)N[C@@H](CCCNC(=N)N)C(=O)N[C@@H](CCCNC(=N)N)C(=O)N[C@@H](CC(C)C)C(=O)N[C@@H](CC(C)C)C(=O)N[C@@H](CCC(N)=O)C(=O)NCC(=O)N[C@@H](Cc1c[nH]c2ccccc12)C(N)=O (stereo in doubt; form 1)
